According to article PMC6749236, “Synthesis of Novel 2-(Het)arylpyrrolidine Derivatives and Evaluation of Their Anticancer and Anti-Biofilm Activity” (Molecules, 2019):
“And” between values parts separate entries of the source, which are not always exact repeats. Equal entries are not always repeated. Marks after values point to notes of the source that are not given here.

What was measured:
[1] = tested on: M-Hela; assay: Cytotoxicity assay (Cytell Cell Imaging, DAPI/propidium iodide), cancer cell line; format: cell-based; conditions: Homo sapiens; M-Hela; tested at 1–100 µM; three independent experiments; read-out: IC50 Cancer Cell Line M-Hela
[2] = tested on: Chang liver cell line; assay: Cytotoxicity assay (Cytell Cell Imaging), normal cell line; format: cell-based; conditions: Homo sapiens, tested at 1–100 µM, three independent experiments, read-out: IC50 Normal Cell Line Chang Liver
[3] = tested on: Acinetobacter calcoaceticus VKPM B-10353; assay: Biofilm formation, crystal violet assay; format: cell-based; conditions: A. calcoaceticus VKPM B-10353; for Biofilm Formation: control = 100%
Protocol: (§1) Bacterial strains and cultivation conditions. For the detection of biofilms, formation strains Vibrio aquamarinus DSM 26054 and Acinetobacter calcoaceticus VKPM B-10353 were used. These strains form biofilms, making them useful for studying biofilms.
(§2) The bacterial strains Acinetobacter calcoaceticus VKPM B-10353, E. coli MG1655 (pRecA-lux), and E. coli MG1655 (pSoxS-lux) were cultivated in Luria–Bertani (LB) medium under constant shaking to early exponential phase at 37 °C. Cells were used immediately for stress induction tests. One hundred micrograms of ampicillin per milliliter were added into LB medium at cultivation of E. coli MG1655 (pRecA-lux) and E. coli MG1655 (pSoxS-lux). Strain V. aquamarinus DSM 26054 was grown in LB medium supplemented with 3% NaCl.
(§3) The test compounds were dissolved in DMSO to the concentration of 1 × 10^−2 M. Then, they were diluted with ethanol. The control solutions were analogous dilutions of DMSO in ethanol. The tested compounds were also compared with the standard antibiotic azithromycin. Azithromycin was dissolved in DMSO to the concentration of 5 × 10^−3 M and then diluted with deionized water.
(§4) Test system for evaluation of biofilms production. To quantify the formation of biofilms, the crystal violet assay was used, with some modifications. The necessary concentrations of the test compounds were prepared as described above.
(§5) V. aquamarinus DSM 26054 was cultivated for 24 h in LB medium supplemented with 3% NaCl in the Innova 40R shaker incubator (New Brunswick Scientific, USA) at 25 °C and 200 rpm. A. calcoaceticus VKPM B-10353 was cultivated for 24 h in LB medium in the Innova 40R shaker incubator (New Brunswick Scientific, Enfield, CT, USA) at 30 °C and 200 rpm. Then, the suspensions of the daily culture of V. aquamarinus DSM 26054 and A. calcoaceticus VKPM B-10353 were diluted with LB medium supplemented with 3% NaCl to the density of 1 × 10^8 cells/mL.
(§6) The resulting suspension (180 μL) was added to the wells of a polystyrene microplate (Nuova Aptaca, Canelli, Italy). To some of the wells, 20 μL of the test substances at various concentrations were added. Since solvents used could also influence the biofilm formation, 20 μL of the appropriate solvent was added to the other part of the wells at same dilutions (control). Six replicates were done for each treatment and control. The microplate was covered with a lid and wrapped with Parafilm (Bemis Company, Inc., Oshkosh, WI, USA).
(§7) After incubation at 25 °C for 72 h, biofilms were stained. The contents in the wells were removed by means of a dispenser. The wells were then carefully washed three times with 250 μL of sterile saline. The microplates were shaken to remove all non-adherent bacteria. Biofilms were fixed with 200 μL of 96% ethanol for 15 min. After the microplates had dried in air, 200 μL of 0.5% crystal violet was introduced into the wells. After 10 min, the dye was removed. The excess dye was removed by washing with water three times. After the microplates were air-dried, the dye in the wells bound to biofilms was dissolved with 200 μL of 96% ethanol. The extraction level (absorption) of crystal violet by ethanol was measured after 60 minutes at a wavelength of 570 nm using a FLUOstar Omega microplate reader (BMG Labtech, Offenburg, Germany) in optical density units (OD570). The intensity of biofilm formation directly corresponds to the intensity of staining of the contents of the wells with the dye. Biofilm formation was determined by the difference between the mean OD readings obtained in the presence of compounds and the control.
(§8) Each experiment was performed in triplicate. The values were expressed as mean + SD. Student’s t-test was used to compare these values. Differences were considered statistically significant at p < 0.05.

[4] = tested on: Vibrio aquamarinus DSM 26054; assay: Biofilm formation, crystal violet assay; format: cell-based; conditions: V. aquamarinus DSM 26054, control = 100%
Protocol: as §1, §2, §3, §4, §5, §6, §7, §8

[5] = tested on: Escherichia coli MG1655 (pRecA-lux); assay: Genotoxicity, bacterial lux-biosensor; format: cell-based
Excerpt: (§9) E. coli MG1655 (pRecA-lux) was used for the evaluation of the genotoxicity of the synthesized compounds. The biosensor with the PrecA promotor fixes the presence of the factors causing damage of DNA in a cell. The biosensor E. coli MG1655 (pSoxS-lux) was used for the evaluation of prooxidant activity. The biosensor with the PsoxS promoter fixes the production of superoxide anion and NO [75]. Bioluminescent strains were obtained by the transformation of E. coli MG1655 by hybrid plasmids pRecA-lux, pSoxS-lux. The gene cassette luxCDABE Photorhabdus luminescens under the control PrecA promoters was used in this biosensor. This plasmid was created on the basis of pBR322 and contained a selective marker of ampicillin resistance (Amp gene). The strains were kindly furnished by Manukhov I.V., Federal State Unitary Enterprise “GosNIIGenetika”).
as §2
(§10) Biosensors assay procedure. The detailed protocol of toxicity testing by means of a bacterial lux-biosensors is described in the article.
(§11) Calculation. The criterion of toxic influence was bioluminescence intensity change of the test object in the researched sample in comparison with the control sample.
(§12) The induction factor (I) was defined as the relation of luminescence intensity of a lux-biosensor suspension containing tested sample (Lc) to the luminescence intensity of a lux-biosensor control suspension (Lk): I = Lc/Lk.
If at significant differences from control induction factor values were ≤2, the detected genotoxic effect was evaluated as “weak”, if they were in the range from 2 to 10 as “medium”, and above 10 as “strong”. All the experiments were carried out three times independently.
(§13) Difference reliability of bioluminescence in experiment from control value was estimated by t-criterion with the help of Excel software. The conclusions about sample toxicity were made at p < 0.05.

[6] = tested on: E. coli MG1655 (pSoxS-lux); assay: Prooxidant activity, bacterial lux-biosensor; format: cell-based, Escherichia coli
Excerpt: as §9, §2, §10, §11, §12, §13

[7] = concentration range of 10^−9–10^−5 M
[8] = with metabolic activation (+S9), 10^−5 M
[9] = with metabolic activation (+S9), 10^−6 M
[10] = with metabolic activation (+S9), 10^−7 M
[11] = with metabolic activation (+S9), 10^−8 M
[12] = with metabolic activation (+S9), 10^−9 M
[13] = without metabolic activation (-S9), 10^−5 M
[14] = without metabolic activation (-S9), 10^−6 M
[15] = without metabolic activation (-S9), 10^−7 M
[16] = without metabolic activation (-S9), 10^−8 M
[17] = without metabolic activation (-S9), 10^−9 M

Compound: O=C(Nc1ccccc1)N1CCCC1c1ccc(Nc2c([N+](=O)[O-])c(Cl)cc3c2no[n+]3[O-])cc1O (stereo not drawn) [6b, 6-Chloro-4-((3-hydroxy-4-(1-(phenylcarbamoyl)pyrrolidin-2-yl)phenyl)amino)-5-nitrobenzo[c][1,2,5]oxadiazole 1-oxide]
- IC50 [1]: 56 ± 4.1 µM
- IC50 [2]: > 100 µM
- Biofilm Formation ([3]; 1 × 10^−5 M): 119.69 * %
- Biofilm Formation ([3]; 1 × 10^−6 M): 88.44%
- Biofilm Formation ([3]; 1 × 10^−7 M): 73.93 * %
- Biofilm Formation ([3]; 1 × 10^−8 M): 70.79 * %
- Biofilm Formation ([3]; 1 × 10^−9 M): 90.41%
- Biofilm formation with respect to control, over the investigated concentrations ([3]; 1 × 10^−9–1 × 10^−5 M): both suppressing and stimulating
- Biofilm Formation ([4]; 1 × 10^−5 M): 89.12%
- Biofilm Formation ([4]; 1 × 10^−6 M): 39.02 * %
- Biofilm Formation ([4]; 1 × 10^−7 M): 26.04 * %
- Biofilm Formation ([4]; 1 × 10^−8 M): 15.42 * %
- Biofilm Formation ([4]; 1 × 10^−9 M): 8.21 * %
- detected genotoxic effect, class ([5]; concentration of 10^−5 M): weak (induction factor values were ≤2)
- detected genotoxic effect, class [5, 7]: medium (in the range from 2 to 10)
- Genotoxicity (induction factor, I) [5, 8]: 1.23 ± 0.02
- Genotoxicity (induction factor, I) [5, 9]: 1.36 ± 0.04
- Genotoxicity (induction factor, I) [5, 10]: 1.30 ± 0.02
- Genotoxicity (induction factor, I) [5, 11]: 1.31 ± 0.01
- Genotoxicity (induction factor, I) [5, 12]: 1.47 ± 0.04
- Genotoxicity (induction factor, I) [5, 13]: 1.77 ± 0.04
- Genotoxicity (induction factor, I) [5, 14]: 2.15 ± 0.06
- Genotoxicity (induction factor, I) [5, 15]: 2.07 ± 0.11
- Genotoxicity (induction factor, I) [5, 16]: 2.28 ± 0.12
- Genotoxicity (induction factor, I) [5, 17]: 2.34 ± 0.06
- Prooxidant activity (induction factor) ([6]; 10^−5 M): 0.89 ± 0.03
- Prooxidant activity (induction factor) ([6]; 10^−6 M): 1.24 ± 0.11
- Prooxidant activity (induction factor) ([6]; 10^−7 M): 1.04 ± 0.04
- Prooxidant activity (induction factor) ([6]; 10^−8 M): 1.21 ± 0.00
- Prooxidant activity (induction factor) ([6]; 10^−9 M): 1.03 ± 0.10
- prooxidant activity, in words ([6]; 10^−9–10^−5 M): did not possess prooxidant activity
- melting point: 165 to 170 °C (dec.)

Compound: COc1ccc(NC(=O)N2CCCC2c2ccc(Nc3c([N+](=O)[O-])c(Cl)cc4c3no[n+]4[O-])cc2O)cc1 (stereo not drawn) [6c, 6-Chloro-4-((3-hydroxy-4-(1-((4-methoxyphenyl)carbamoyl)pyrrolidin-2-yl)phenyl)amino)-5-nitrobenzo[c][1,2,5]oxadiazole 1-oxide]
- IC50 [1]: 26 ± 1.9 µM
- IC50 [2]: 62 ± 4.3 µM
- Biofilm Formation ([3]; 1 × 10^−5 M): 82.82%
- Biofilm Formation ([3]; 1 × 10^−6 M): 79.31 * %
- Biofilm Formation ([3]; 1 × 10^−7 M): 72.77 * %
- Biofilm Formation ([3]; 1 × 10^−8 M): 55.74 * %
- Biofilm Formation ([3]; 1 × 10^−9 M): 93.75%
- Biofilm Formation ([4]; 1 × 10^−5 M): 26.65 * %
- Biofilm Formation ([4]; 1 × 10^−6 M): 18.28 * %
- Biofilm Formation ([4]; 1 × 10^−7 M): 9.22% and 9.22 * %
- Biofilm Formation ([4]; 1 × 10^−8 M): 14.67 * %
- Biofilm Formation ([4]; 1 × 10^−9 M): 13.54% and 13.54 * %
- genotoxicity under conditions of metabolic activation, in words ([5]; +S9, concentration range of 10^−7–10^−6 M): registered
- detected genotoxic effect, class [5, 7]: medium (in the range from 2 to 10)
- Genotoxicity (induction factor, I) [5, 8]: 1.35 ± 0.02
- Genotoxicity (induction factor, I) [5, 9]: 1.54 ± 0.03
- Genotoxicity (induction factor, I) [5, 10]: 1.49 ± 0.02
- Genotoxicity (induction factor, I) [5, 11]: 1.37 ± 0.02
- Genotoxicity (induction factor, I) [5, 12]: 1.30 ± 0.01
- Genotoxicity (induction factor, I) [5, 13]: 2.33 ± 0.04
- Genotoxicity (induction factor, I) [5, 14]: 2.82 ± 0.05
- Genotoxicity (induction factor, I) [5, 15]: 2.64 ± 0.14
- Genotoxicity (induction factor, I) [5, 16]: 2.84 ± 0.02
- Genotoxicity (induction factor, I) [5, 17]: 2.67 ± 0.07
- Prooxidant activity (induction factor) ([6]; 10^−5 M): 0.96 ± 0.09
- Prooxidant activity (induction factor) ([6]; 10^−6 M): 1.46 ± 0.03
- Prooxidant activity (induction factor) ([6]; 10^−7 M): 1.68 ± 0.20
- Prooxidant activity (induction factor) ([6]; 10^−8 M): 1.54 ± 0.20
- prooxidant response, in words ([6]; 10^−8–10^−7 M): weak response
- Prooxidant activity (induction factor) ([6]; 10^−9 M): 1.11 ± 0.03
- melting point: 196 to 202 °C (dec.)
